Consider eight compounds from patent publication US11976083B2, “Inhibitors of peptidylarginine deiminases” (Gilead Sciences, Inc., priority 2020, dated 2024).

For the test, the target named is T1, human PAD4 (Homo sapiens, UniProt Q9UM07).
T1 construct: human PAD4 (NM_012387), A2-P663, was PCR amplified; His-SUMO (N, cleaved yes); made in house; host or cells: E. coli BL21(DE3)
T1 sequence (Q9UM07 2-663): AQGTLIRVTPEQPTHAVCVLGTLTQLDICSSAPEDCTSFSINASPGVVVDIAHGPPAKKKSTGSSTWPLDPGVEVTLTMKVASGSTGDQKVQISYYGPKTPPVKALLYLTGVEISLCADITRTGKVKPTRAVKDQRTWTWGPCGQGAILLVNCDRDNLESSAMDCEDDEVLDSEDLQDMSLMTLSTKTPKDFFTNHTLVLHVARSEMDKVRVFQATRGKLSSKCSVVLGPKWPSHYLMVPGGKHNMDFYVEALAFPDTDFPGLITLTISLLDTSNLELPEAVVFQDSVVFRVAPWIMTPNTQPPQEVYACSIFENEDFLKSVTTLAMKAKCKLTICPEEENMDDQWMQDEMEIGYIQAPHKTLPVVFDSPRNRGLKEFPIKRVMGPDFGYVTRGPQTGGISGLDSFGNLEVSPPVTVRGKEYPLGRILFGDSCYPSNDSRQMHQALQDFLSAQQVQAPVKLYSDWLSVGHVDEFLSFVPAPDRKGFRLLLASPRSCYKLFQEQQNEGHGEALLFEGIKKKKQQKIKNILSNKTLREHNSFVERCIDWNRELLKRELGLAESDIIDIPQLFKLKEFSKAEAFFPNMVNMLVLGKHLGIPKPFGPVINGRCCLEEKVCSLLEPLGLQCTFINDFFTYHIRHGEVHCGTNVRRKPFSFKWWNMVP
As to the kind of experiment: In vitro PAD4 BAEE biochemical assay. The following applies: BAEE substrate 3 mM, 5 nM PAD4, 2 mM calcium chloride; geometric mean of multiple experiments. The method in brief: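 PAD4 5 nM, CaCl2 2 mM, BAEE 3 mM final; 50 mM MOPS pH 7.6, 50 mM NaCl, 0.05% Tween-20, 2 mM DTT. Cpd + enzyme 30 min 25 °C; substrate 2 h 25 °C; EDTA stop; OPA detection 1 h. IC50 4-parameter fit.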
A word on the IC50: it is the point on the concentration scale where inhibition reaches its midpoint. Turning to `COc1cc(C(=O)N2CCC[C@@H](N)C2)cc2nc(-c3cc4ccc5cc4n3CCCCCCC3(CC3)C(=O)N[C@@H]5C)n(C)c12` [Example 155, (11~{R})-17-[5-[(3~{R})-3-aminopiperidine-1-carbonyl]-7-methoxy-1-methyl-benzimidazol-2-yl]-11-methyl-spiro[1,10-diazatricyclo[10.5.2.0^{15,18}]nonadeca-12(19),13,15(18),16-tetraene-8,1′-cyclopropane]-9-one], the IC50 worked out at 77 nM.

For the compound `COc1cc(C(=O)N2CCC[C@@H](N)C2)cc2nc(-c3cc4ccc5cc4n3CCCCCOC(C)(C)C(=O)N[C@@H]5C)n(C)c12` [Example 156, (11~{R})-17-[5-[(3~{R})-3-aminopiperidine-1-carbonyl]-7-methoxy-1-methyl-benzimidazol-2-yl]-8,8,11-trimethyl-7-oxa-1,10-diazatricyclo[10.5.2.0^{15,18}]nonadeca-12(19),13,15(18),16-tetraen-9-one], the IC50 was determined as 56 nM. The result for `COc1cc(C(=O)N2CCC[C@@H](N)C2)cc2nc(-c3cc4ccc5nc4n3CCCCC[C@@H]3C[C@H]3C(=O)N[C@@H]5C)n(C)c12` [Example 157, (2~{R},5~{R},7~{R})-14-[5-[(3~{R})-3-aminopiperidine-1-carbonyl]-7-methoxy-1-methyl-benzimidazol-2-yl]-2-methyl-3,13,19-triazatetracyclo[11.5.2.0^{5,7}.0^{16,20}] icosa-1(19),14,16(20),17-tetraen-4-one] reads 36 nM. In the case of `COc1cc(C(=O)N2CCC[C@@H](N)C2)cc2nc(-c3cc4ccc5nc4n3CCCCC[C@H]3C[C@@H]3C(=O)N[C@@H]5C)n(C)c12` [Example 158, (2~{R},5~{S},7~{S})-14-[5-[(3~{R})-3-aminopiperidine-1-carbonyl]-7-methoxy-1-methyl-benzimidazol-2-yl]-2-methyl-3,13,19-triazatetracyclo[11.5.2.0^{5,7}.0^{16,20}] icosa-1(19),14,16(20),17-tetraen-4-one], the IC50 stood at 241 nM.

With `COc1cc(C(=O)N2CCC[C@@H](N)C2)cc2nc(-c3cc4ccc5cc4n3CCCCCCC3(CC3)C(=O)N[C@@H]5C)n(C3CC3)c12` [Example 159, (11~{R})-17-[5-[(3~{R})-3-aminopiperidine-1-carbonyl]-1-cyclopropyl-7-methoxy-benzimidazol-2-yl]-11-methyl-spiro[1,10-diazatricyclo[10.5.2.0^{15,18}]nonadeca-12(19),13,15(18),16-tetraene-8,1′-cyclopropane]-9-one], the IC50 amounted to 62 nM. Turning to `COc1cc(C(=O)N2CCC[C@@H](N)C2)cc2nc(-c3cc4ccc5cc4n3CCCCCCC(C)(C)C(=O)N[C@@H]5C)n(C3CC3)c12` [Example 160, (11~{R})-17-[5-[(3~{R})-3-aminopiperidine-1-carbonyl]-1-cyclopropyl-7-methoxy-benzimidazol-2-yl]-8,8,11-trimethyl-1,10-diazatricyclo[10.5.2.0^{15,18}]nonadeca-12(19),13,15(18),16-tetraen-9-one], the half-inhibitory concentration (IC50) came out at 53 nM. The result for `COc1cc(C(=O)N2CCC[C@@H](N)C2)cc2nc(-c3cc4ccc5nc4n3C[C@H]3C[C@@H]3[C@H](C)OCCC(=O)N[C@@H]5C)n(C)c12` [Example 161, (3~{S},5~{S},6~{S},12~{R})-18-[5-[(3~{R})-3-aminopiperidine-1-carbonyl]-7-methoxy-1-methyl-benzimidazol-2-yl]-6,12-dimethyl-7-oxa-1,11,20-triazatetracyclo[11.5.2.0^{3,5}.0^{16,19}] icosa-13(20),14,16(19),17-tetraen-10-one] reads 108 nM. The result for `COc1cc(C(=O)N2CCC[C@@H](N)C2)cc2nc(-c3cc4ccc5nc4n3C[C@H]3C[C@@H]3[C@@H](C)OCCC(=O)N[C@@H]5C)n(C)c12` [Example 162, (3~{S),5~{S},6~{R},12~{R})-18-[5-[(3~{R})-3-aminopiperidine-1-carbonyl]-7-methoxy-1-methyl-benzimidazol-2-yl]-6,12-dimethyl-7-oxa-1,11,20-triazatetracyclo[11.5.2.0^{3,5}.0^{16,19}] icosa-13(20),14,16(19),17-tetraen-10-one] reads 55 nM.
